These results are taken from PMC11212260, “Next-generation neuropeptide Y receptor small-molecule agonists inhibit mosquito-biting behavior” (Parasites & Vectors, 2024).

Several values for one entry are separate records, joined by “and”; a condition that tells them apart may be missing. Identical values can stand only once. Like-named read-outs stand apart in the source and are kept apart here.

Test [1] has as its target Ae. aegypti NPYLR7 (Aedes aegypti, UniProt U5N1H5). Description: In vitro calcium (GCaMP6s) FLIPR assay in HEK293T cells transfected with NPYLR7. Type of test: cell-based. Conditions: for in vitro potency (in words): relative to reference compound TDI-012631; for RFU: assay date 1/11/20 plate 1, duplicate wells, listed as TDI-012631-CL-1. In outline:
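HEK293T cells transiently co-transfected with GCaMP6s, mouse Gqα15 and NPYLR7; FLIPR imaging every second for 5 min, compound (0–100 μM) added after 30 s baseline in HBSS + 20 mM HEPES. Response normalized to buffer (0%) and 10 μM FMRFa3 (100%); relative EC50 by four-parameter fit, replicates averaged.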

Test [2] concerns Aedes aegypti (Orlando strain) females. Briefly: Biting assay (mouse-in-cage). Type of test: in vivo. Also on record: key to Difference between medians: Actual (vs. saline) / Difference between medians: Hodges-Lehmann (vs. saline): differences in percent biting (blood-fed/total females, %). The following applies: for Percentage of females that freshly blood-fed on an anesthetized mouse: fed 1 μM 48 h prior, 15 min exposure, individual replicates; for effect on biting / blood-feeding from a live host (in words): fed at a dose of 1 μM. Here is the method: Groups of 60–150 females were placed in bucket cages with a diameter of 21.6 cm and height of 16.5 cm (VWR) and fasted with access to water for 24 h prior to feeding. Meals were delivered to females via Glytube membrane feeders as described previously. Meals consisted of 1.5 ml sheep blood (HemoStat Laboratories), saline (400 mM NaHCO3 + dih2O), or saline and test compound. Lyophilized compounds were stored at room temperature until use. High-concentration stocks (30 mM in 100% dimethyl sulfoxide [DMSO]) (Sigma-Aldrich) were stored at −20 °C and diluted in saline immediately prior to feeding. Once prepared, meals and glycerol heating elements were warmed in a 42 °C water bath for 15 min to provide warmth to attract mosquitos to feed. […] Females were allowed 15–20 min to feed to repletion. Abdominal engorgement was scored by eye and confirmed by weighing females to ensure full feeding (Data S1). […] Females were returned to their original cage with a diH2O wick for 48 h prior to behavioral testing. The lethality of each compound was measured by counting the number of dead females in each cage 24 h post-meal.
This assay was modified from. Females were fed and scored as described above. Forty-eight hours post-meal, females were anesthetized in a 4 °C cold room and aspirated into a petri dish (Thermo Fisher Biosciences) with a randomly assigned color powder (Slice of the Moon; Chameleon Colors) to mark their treatment group. Females were then individually removed from the color powder, placed inside a cage measuring 91 cm × 61 cm × 61 cm (BugDorm), and allowed 2–4 h to recover. Each experiment consisted of a cage with 12–20 females in each treatment group including environmental (non-fed and blood-fed) and vehicle (saline-fed) control groups. The experiment began once an anesthetized mouse was introduced to the center of the cage, and females were allowed 15 min to blood-feed. The mouse was then removed, and the cage was placed at 4 °C to anesthetize females for collection. Females were aspirated into a large glass petri dish (Pyrex) and scored under a dissection microscope (Nikon SMZ1500) for powder color and blood-feeding status. Females were scored as blood-fed if fresh blood was present in the abdomen. Percent biting was calculated as females freshly blood-fed/total females in each respective treatment group.

The mark [3] stands for this setting: EC50 of the individual assay date/plate (assay date), read-out: EC50.
Where [4] appears, read: relative EC50, percent effect relative to 10 μM FMRFa3, read-out: EC50.
Where [5] appears, read: summary EC50 per compound (mean over assay dates), the unit is taken from the neighbouring EC50 (uM) column, read-out: Reported Metric.
Where [6] appears, read: Figure 1E Summary, third list (n = 39), read-out: Reported Metric (Summary list).

Ae. aegypti NPYLR7, sequence (U5N1H5 entry or part of it): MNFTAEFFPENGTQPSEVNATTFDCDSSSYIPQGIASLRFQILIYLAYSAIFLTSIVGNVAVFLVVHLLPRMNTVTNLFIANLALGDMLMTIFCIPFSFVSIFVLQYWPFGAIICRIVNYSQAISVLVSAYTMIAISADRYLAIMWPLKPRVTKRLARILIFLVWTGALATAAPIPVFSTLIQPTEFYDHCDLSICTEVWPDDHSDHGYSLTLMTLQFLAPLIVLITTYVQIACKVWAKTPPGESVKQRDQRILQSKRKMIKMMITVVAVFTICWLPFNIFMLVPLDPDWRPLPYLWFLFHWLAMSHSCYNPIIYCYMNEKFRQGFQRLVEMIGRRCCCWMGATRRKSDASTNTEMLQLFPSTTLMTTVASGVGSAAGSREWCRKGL

Consider `Cc1nc(NC(=N)N)nc2cc(N3CCc4ccccc4C3)ccc12` [TDI-014186], for which the EC50 in test [1] (setting [3]) is 35.5 µM; in test [1] (Figure 1E Summary, second list (n = 48), read-out: Reported Metric (Summary list)), 35.5 µM; in test [1] (setting [4]), 35.5 µM; in test [1] (setting [5]), 35.5 µM. Besides, in test [1], the “in vitro potency (in words)” value is on record as “lower in vitro potency”. In addition, the “Difference between medians: Actual (vs. saline)” value in test [2] (fed 1 μM) was -18.25. The “Difference between medians: Hodges-Lehmann (vs. saline)” value in test [2] (fed 1 μM) is reported as -17. In addition, the “Median (percent freshly blood-fed)” value in test [2] (fed 1 μM) is listed as 54.25, n=9%. Moreover, the “Significantly different (P < 0.05)? vs. saline” value in test [2] (fed 1 μM) is “Yes”. Besides, the “Percentage of females that freshly blood-fed on an anesthetized mouse” value in test [2] (listed as TDI-04186) was 31% and 62% and 70% and 67% and 36% and 53% and 65%. The “effect on biting / blood-feeding from a live host (in words)” value in test [2] is “effectively reduced biting”.

`CNc1nc(NC(=N)N)nc2cc(OCc3ccccc3)c(OC)cc12` [TDI-014184]: the EC50 in test [1] (setting [3]) was found to be 0.49 µM. In test [1] (setting [6]), the EC50 turned out to be 0.49 µM. Moreover, in test [1] (HEK-293T, 0.0457 uM, single replicate, normalised response), the activation at 0.0457 µM stood at 8.6%. In addition, the activation at 11.1111 µM in test [1] (HEK-293T, 11.1111 uM, single replicate, normalised response) amounted to 91.4%. Further, the EC50 in test [1] (setting [4]) was determined as 0.49 µM. In test [1], the “in vitro potency (in words)” value is “significantly improved in vitro potency”. Also, in test [1] (setting [5]), the EC50 turned out to be 0.49 µM. Moreover, in test [2] (fed 1 μM), the “Difference between medians: Actual (vs. saline)” value is -27.4; the “Difference between medians: Hodges-Lehmann (vs. saline)” value is listed as -24; the “Median (percent freshly blood-fed)” value is recorded as 47.00, n=11%; the “Significantly different (P < 0.05)? vs. saline” value was “Yes”. Besides, the “Percentage of females that freshly blood-fed on an anesthetized mouse” value in test [2] (listed as TDI-04184) was 65% and 81% and 47% and 10% and 44% and 86% and 33% and 56% and 35%. For the same compound, the “effect on biting / blood-feeding from a live host (in words)” value in test [2] was “reduced biting behavior”.

For the compound `COc1ccc2c(C)nc(NC(=N)N)nc2c1` [TDI-012631, reference compound], the RFU is 71 RFU and 55 RFU in test [1] (0.00169350878084303uM); 71 RFU and 78 RFU in test [1] (0.00508052634252909uM); 77 RFU and 71 RFU in test [1] (0.0152415790275873uM); 80 RFU and 73 RFU in test [1] (0.0457247370827618uM); 64 RFU and 79 RFU in test [1] (0.137174211248285uM); 90 RFU and 78 RFU in test [1] (0.411522633744856uM). For the same compound, the RFU was 273 RFU and 186 RFU in test [1] (3.7037037037037uM); 265 RFU and 324 RFU in test [1] (11.1111111111111 uM); 286 RFU and 301 RFU in test [1] (33.333333 uM); 368 RFU and 331 RFU in test [1] (100 uM). Further, the EC50 in test [1] (setting [6]) is 4.11 µM; in test [1] (Figure 1E, EC50 of the single assay date/plate, read-out: EC50) it was 2.75 µM and 1.61 µM and 2.58 µM and 3.45 µM and 2.36 µM and 11.5 µM and 2.22 µM and 6.4 µM; in test [1] (Figure 1E, metric reported per compound, repeated on every replicate line, read-out: Reported Metric (EC50)), 4.11 µM; in test [1] (setting [4]) it was 4.11 µM; in test [1] (sheet Figure 3C, unit inferred, read-out: EC50), 4.11 µM. The “response at 0.0051(uM)” value in test [1] (compound 0.0051 uM, single replicate well) was -0.02145. Besides, the “response at 0.0152(uM)” value in test [1] (compound 0.0152 uM, single replicate well) stood at 3.235. Besides, the “response at 0.4115(uM)” value in test [1] (compound 0.4115 uM, single replicate well) is -1.786. The “Difference between medians: Actual (vs. saline)” value in test [2] (fed 100 μM) is given as -26. Further, the “Difference between medians: Hodges-Lehmann (vs. saline)” value in test [2] (fed 100 μM) is -24.68. Moreover, in test [2] (fed 100 μM), the “Median (percent freshly blood-fed)” value was 53.00, n=17%. Further, in test [2] (fed 100 μM), the “Significantly different (P < 0.05)? vs. saline” value is “Yes”. Further, the “effect on blood-feeding from a live host (in words)” value in test [2] (fed at a dose of 100 μM) is “inhibited blood-feeding”.
